Measurements taken from US20110201634A1, “DIHYDROPYRIDIMIDINONE COMPOUNDS FOR THE TREATMENT OF CARDIOVASCULAR DISEASES AND PROCESS FOR PREPARING THE SAME” (DELHI UNIVERSITY, priority 2008, published 2011).

Assays:
[1] = system: intracellular nitric oxide level; assay: Enhancement of intracellular nitric oxide; format: cell-based; conditions: equimolar (40 μM)
[2] = system: platelets (ADP-induced platelet aggregation); assay: ADP-induced platelet aggregation, ex vivo after administration by gavage; conditions: po, suspended in water, sonicated, given by gavage, equimolar dose (40 μM), ADP 15 μM
Source text: C. Preparation of Platelet Rich Plasma for the EX VIVO Studies

[3] = system: platelets (ADP-induced platelet aggregation); assay: ADP-induced platelet aggregation, in vitro (platelet rich plasma); format: cell-based; conditions: test compounds equimolar (40 μM); ADP 15 μM
Source text: Preparation of Platelet Rich Plasma for the IN VITRO Studies (7)

[4] = system: TAase; assay: TAase activity; format: biochemical

SMILES | Enhancement of Nitric Oxide (folds) [1] | inhibition at 40 µM [2] [%] | ADP-induced Platelet aggregation (% inhibition) IN VITRO [3] | TAase Activity (Units) [4]
COC(=O)C(c1ccccc1Cl)N1CCc2sccc2C1 (centres unmarked) | Nil | 65 | Nil | Nil
CC(=O)Oc1ccccc1C(=O)O | Nil | 55 | Nil | Nil
